From ChEMBL document CHEMBL6071153, “Design, synthesis, and evaluation of antitumor activity in Pseudolaric acid B Azole derivatives: Novel and potent angiogenesis inhibitor via regulation of the PI3K/AKT and MAPK mediated HIF-1/VEGF signaling pathway” (Eur J Med Chem, 2024)
Activity calls are given as the source filed them. The calls are words filed in the database; no cut-off is given here.

Assays:
[1] = Inhibition of VEGFR mediated endocytosis in human SiHa cells incubated for 24 hrs under hypoxic condition by ELISA; assay type: cell-based
[2] = test system: SiHa; test: Cytotoxicity against human SiHa cells assessed as inhibition of cell growth incubated for 24 hrs under normoxic condition by MTT assay; assay type: functional, cell-based
[3] = Toxicity in Balb/c mouse xenografted with human SiHa cells assessed as reduction in body weight at 30 mg/kg,ip administration measured after 22 days; assay type: organism-based; settings: in vivo, 528 h, time 22 day
[4] = Toxicity in Balb/c mouse assessed as change in animal fur at 50 mg/kg,ip administration for 1 week; assay type: organism-based; settings: in vivo, 168 h, time 1 weeks
[5] = test system: SiHa; test: Antitumor activity against human SiHa cells xenografted in Balb/c mouse assessed as reduction in tumor volume at 30 mg/kg,ip administration measured after 22 days; assay type: functional, organism-based; settings: time 22.0 day
[6] = test system: SiHa; test: Inhibition of hypoxia-induced HIF-1beta accumulation in human SiHa cells at 10 uM incubated for 24 hrs under hypoxic condition by Western blotting analysis; assay type: functional, cell-based
[7] = test system: SiHa; test: Inhibition of VEGFR in human SiHa cells assessed as decrease in intracellular VEGFR protein expression at 10 uM incubated for 24 hrs under hypoxic condition by immunofluorescence staining based analysis relative to M2; assay type: cell-based
[8] = test system: SiHa; test: Antitumor activity against human SiHa cells xenografted in Balb/c mouse assessed as reduction in tumor growth at 30 mg/kg,ip administration measured after 22 days; assay type: functional, organism-based; settings: time 22.0 day
[9] = test system: SiHa; test: Antitumor activity against human SiHa cells xenografted in Balb/c mouse assessed as reduction in tumor weight at 30 mg/kg,ip administration measured after 22 days; assay type: functional, organism-based; settings: time 22.0 day
[10] = test system: HUVEC; test: Antiangiogenic activity against human HUVEC cells assessed as inhibition of blood vessel formation at 10 uM incubated for 4 hrs under hypoxic condition by fluorescence microscopic analysis; assay type: functional, cell-based
[11] = test system: HUVEC; test: Inhibition of cell migration in human HUVEC cells at 10 uM incubated for 48 hrs under hypoxic condition by microscopic analysis relative to M2; assay type: functional, cell-based
[12] = Toxicity in Balb/c mouse assessed as fatality at 50 mg/kg,ip administration for 1 week; assay type: organism-based; settings: in vivo, 168 h, time 1 weeks
[13] = test system: SiHa; test: Inhibition of hypoxia-induced HIF-1alpha accumulation in human SiHa cells at 10 uM incubated for 24 hrs under hypoxic condition by Western blotting analysis; assay type: functional, cell-based
[14] = Inhibition of PI3K/AKT/mTOR signalling pathway in human SiHa cells assessed as downregulation of JNK phosphorylation at 10 uM incubated for 24 hrs under hypoxic condition by Western blotting analysis; assay type: cell-based
[15] = test system: HUVEC; test: Inhibition of cell migration in human HUVEC cells at 10 uM incubated for 48 hrs under hypoxic condition by microscopic analysis relative to PAB; assay type: functional
[16] = Inhibition of HIF-1 transcriptional activity in human HCT-116 cells preincubated for 1 hr under normoxic condition followed by 24 hrs incubation under hypoxic condition by luciferase reporter assay; assay type: cell-based

Row | SMILES | IC50 [1] [nM] | IC50 [2] [µM] | further results
1 | COC(=O)C1=CC[C@@]23CC[C@@H]([C@@](C)(/C=C/C=C(\C)C(=O)OCc4cn(-c5ccccc5)nn4)OC2=O)[C@@]3(OC(C)=O)CC1 | > 5000 | > 30 | –
2 | COC(=O)C1=CC[C@@]23CC[C@@H]([C@@](C)(/C=C/C=C(\C)C(=O)OCc4cc(-c5ccc(OC)cc5)no4)OC2=O)[C@@]3(OC(C)=O)CC1 | > 5000 | > 30 | –
3 | COC(=O)C1=CC[C@@]23CC[C@@H]([C@@](C)(/C=C/C=C(\C)C(=O)OCc4cn(-c5ccc(OC)cc5)nn4)OC2=O)[C@@]3(OC(C)=O)CC1 | 2180 | > 30 | –
4 | COC(=O)C1=CC[C@@]23CC[C@@H]([C@@](C)(/C=C/C=C(\C)C(=O)OCCn4ncn(-c5ccc(OC)c(OC)c5)c4=O)OC2=O)[C@@]3(OC(C)=O)CC1 | > 5000 | > 30 | –
5 | COC(=O)C1=CC[C@@]23CC[C@@H]([C@@](C)(/C=C/C=C(\C)C(=O)OCCn4ncn(-c5ccc(F)cc5)c4=O)OC2=O)[C@@]3(OC(C)=O)CC1 | 2380 | > 30 | –
6 | COC(=O)C1=CC[C@@]23CC[C@@H]([C@@](C)(/C=C/C=C(\C)C(=O)OCC(=O)Nc4ccc(OC)cc4)OC2=O)[C@@]3(OC(C)=O)CC1 | 1860 | > 30 | –
7 | COC(=O)C1=CC[C@@]23CC[C@@H]([C@@](C)(/C=C/C=C(\C)C(=O)OCc4cn(Cc5ccccc5)nn4)OC2=O)[C@@]3(OC(C)=O)CC1 | > 5000 | > 30 | –
8 | COC(=O)C1=CC[C@@]23CC[C@@H]([C@@](C)(/C=C/C=C(\C)C(=O)NCc4cn(-c5ccc(F)cc5)nn4)OC2=O)[C@@]3(OC(C)=O)CC1 | 4140 | > 30 | –
9 | COC(=O)C1=CC[C@@]23CC[C@@H]([C@@](C)(/C=C/C=C(\C)C(=O)NCc4cn(-c5ccccc5)nn4)OC2=O)[C@@]3(OC(C)=O)CC1 | 2910 | > 30 | –
10 | COC(=O)C1=CC[C@@]23CC[C@@H]([C@@](C)(/C=C/C=C(\C)C(=O)O)OC2=O)[C@@]3(OC(C)=O)CC1 [PSEUDOLARIC ACID B] | 5540 | > 30 | Activity [3]: Non-Toxic; Activity [4]: Non-Toxic; Activity [5]: Active; inhibition [6]: Active; inhibition [7]: Active; Activity [8]: Active; Activity [9]: Active; Activity [10]: Active; inhibition [11]: Active; Activity [12]: Non-Toxic; inhibition [13]: Active; inhibition [14]: inactive; inhibition at 10 µM [15]: 68.5%
11 | COC(=O)C1=CC[C@@]23CC[C@@H]([C@@](C)(/C=C/C=C(\C)C(=O)OCc4cn(Cc5ccc(Cl)cc5)nn4)OC2=O)[C@@]3(OC(C)=O)CC1 | 1430 | > 30 | –
12 | COC(=O)C1=CC[C@@]23CC[C@@H]([C@@](C)(/C=C/C=C(\C)C(=O)OCc4nnc(-c5ccc(Cl)cc5)o4)OC2=O)[C@@]3(OC(C)=O)CC1 | > 5000 | > 30 | –
13 | COC(=O)C1=CC[C@@]23CC[C@@H]([C@@](C)(/C=C/C=C(\C)C(=O)OCC(=O)NCc4cn(-c5ccccc5)nn4)OC2=O)[C@@]3(OC(C)=O)CC1 | 2800 | > 30 | –
14 | COC(=O)C1=CC[C@@]23CC[C@@H]([C@@](C)(/C=C/C=C(\C)C(=O)OCCn4ncn(-c5ccccc5)c4=O)OC2=O)[C@@]3(OC(C)=O)CC1 | 4030 | > 30 | –
15 | COC(=O)C1=CC[C@@]23CC[C@@H]([C@@](C)(/C=C/C=C(\C)C(=O)OCc4cn(Cc5cc(OC)c(OC)c(OC)c5)nn4)OC2=O)[C@@]3(OC(C)=O)CC1 | 2300 | > 30 | –
16 | COC(=O)C1=CC[C@@]23CC[C@@H]([C@@](C)(/C=C/C=C(\C)C(=O)OCc4nc(-c5ccc(Cl)c(Cl)c5)no4)OC2=O)[C@@]3(OC(C)=O)CC1 | 3030 | > 30 | –
17 | COC(=O)C1=CC[C@@]23CC[C@@H]([C@@](C)(/C=C/C=C(\C)C(=O)OCc4cn(-c5ccc(Cl)cc5)nn4)OC2=O)[C@@]3(OC(C)=O)CC1 | 2150 | > 30 | –
18 | COC(=O)C1=CC[C@@]23CC[C@@H]([C@@](C)(/C=C/C=C(\C)C(=O)OCCn4ncn(-c5ccc(Cl)cc5)c4=O)OC2=O)[C@@]3(OC(C)=O)CC1 | 1860 | > 30 | –
19 | COC(=O)C1=CC[C@@]23CC[C@@H]([C@@](C)(/C=C/C=C(\C)C(=O)OCc4cc(-c5ccccc5)no4)OC2=O)[C@@]3(OC(C)=O)CC1 | > 5000 | > 30 | –
20 | CN1CCN(CCOc2cccc(Cn3nc(-c4nc(-c5ccc(OC(F)(F)F)cc5)no4)c4ccccc43)c2)CC1 | – | – | IC50 [16]: 620 nM
